Assay [1] has as its target T1, muPA Y99A (Mus musculus, UniProt P06869, Y274A).
T1 construct: To ensure that the uPAs purified from the conditioned media were completely in the two-chain form, they were treated with plasmin; hexa-His (C); made in house; host or cells: HEK293 6E suspension cells
The assay can be described thus: Ki for inhibition of muPA-Y99A, chromogenic substrate. The format is biochemical, murine. From the text:
(§1) Determination of Ki values
(§2) The initial reaction velocities were monitored at an absorbance of 405 nm. The inhibition constants (K i) were subsequently determined from the non-linear regression analyses of plots for V i/V o versus [I]0, using Equation 2, derived under assumption of competitive inhibition:
(§3) [drawing 2] (2) where V i and V 0 are the reaction velocities in the presence and absence of inhibitor, respectively; [S]0 and [I]0 are the substrate and inhibitor concentrations, respectively; K M is K M for substrate hydrolysis by each protease. In Equation 2, it is assumed that [S]free ≈ [S]0 and [I]free ≈ [I]0.

Assay [2] concerns the target T2, muPA V213T (Mus musculus, UniProt P06869, V396T).
T2 construct: To ensure that the uPAs purified from the conditioned media were completely in the two-chain form, they were treated with plasmin; hexa-His (C); made in house; host or cells: HEK293 6E suspension cells
The assay can be described thus: Ki for inhibition of muPA-V213T, chromogenic substrate. The assay is classed as biochemical, murine.
Text: as §1, §2, §3

Assay [3] concerns the target T3, muPA S190A (Mus musculus, UniProt P06869, S373A).
T3 construct: To ensure that the uPAs purified from the conditioned media were completely in the two-chain form, they were treated with plasmin; hexa-His (C); made in house; host or cells: HEK293 6E suspension cells
The assay can be described thus: Ki for inhibition of muPA-S190A, chromogenic substrate. The assay is classed as biochemical, murine.
Text: as §1, §2, §3

Assay [4] addresses T4, muPA K41A (Mus musculus, UniProt P06869, K210A).
T4 construct: To ensure that the uPAs purified from the conditioned media were completely in the two-chain form, they were treated with plasmin; hexa-His (C); made in house; host or cells: HEK293 6E suspension cells
The assay can be described thus: Ki for inhibition of muPA-K41A, chromogenic substrate. The format is biochemical, murine.
Text: as §1, §2, §3

Assay [5] has as its target T5, huPA-H99Y V41A (Homo sapiens, UniProt P00749, H272Y/V208A).
T5 construct: To ensure that the uPAs purified from the conditioned media were completely in the two-chain form, they were treated with plasmin; hexa-His (C); made in house; host or cells: HEK293 6E suspension cells
The assay can be described thus: Ki for inhibition of huPA-H99Y-V41A, chromogenic substrate. The format is biochemical.
Text: as §1, §2, §3

For assay [6], the target named is T6, huPA-H99Y R35A (Homo sapiens, UniProt P00749, H272Y/R198A).
T6 construct: To ensure that the uPAs purified from the conditioned media were completely in the two-chain form, they were treated with plasmin; hexa-His (C); made in house; host or cells: HEK293 6E suspension cells
The assay can be described thus: Ki for inhibition of huPA-H99Y-R35A, chromogenic substrate. The assay is classed as biochemical.
Text: as §1, §2, §3

In assay [7] the target is T7, huPA-H99Y K143A (Homo sapiens, UniProt P00749, H272Y/K320A).
T7 construct: To ensure that the uPAs purified from the conditioned media were completely in the two-chain form, they were treated with plasmin; hexa-His (C); made in house; host or cells: HEK293 6E suspension cells
The assay can be described thus: Ki for inhibition of huPA-H99Y-K143A, chromogenic substrate. The assay is classed as biochemical.
Text: as §1, §2, §3

Assay [8] concerns the target T8, huPA-H99Y (Homo sapiens, UniProt P00749, H272Y).
T8 construct: To ensure that the uPAs purified from the conditioned media were completely in the two-chain form, they were treated with plasmin; hexa-His (C); made in house; host or cells: HEK293 6E suspension cells
The assay can be described thus: Surface plasmon resonance analysis of peptide binding to huPA-H99Y. Conditions: SPR. As to the method: (§4) Surface plasmon resonance (SPR) analysis
(§5) To determine the equilibrium binding constants (KD), the association rate constants (kon) and dissociation rate constants (koff) for peptide binding to uPA, surface plasmon resonance analysis was performed on a Biacore T200 instrument (Biacore, Uppsala, Sweden). A CM5 chip was coupled with the uPA variant (muPA or huPAH99Y) to be analysed, by injecting a concentration of 30 µg/mL uPA in immobilization buffer (10 mM sodium acetate, pH 5.0), aiming for an immobilised level of approximately 500 response units (RU). Immobilisation was followed by surface blocking with ethanolamine. A reference cell was prepared in the same way, without coupling of uPA. Mupain-1 variants in HBS with 0.1% BSA, in a dilution series, were injected at a flow rate of 30 µL per min during 60 s at 25°C. Subsequently, the dissociation was monitored during 600 s. Kinetic constants (k on and k off) were calculated with the Biacore Evaluation Software, using the 1∶1 kinetic fit. The K D values were calculated as k off /k on.

In assay [9] the target is T9, muPA wt (Mus musculus, UniProt P06869).
T9 construct: To ensure that the uPAs purified from the conditioned media were completely in the two-chain form, they were treated with plasmin; hexa-His (C); made in house; host or cells: HEK293 6E suspension cells
The settings on record: introduction; read-out: K i value for inhibition of muPA; cited from earlier work.

The target of assay [10] is T10, muPA K143A (Mus musculus, UniProt P06869, K322A).
T10 construct: To ensure that the uPAs purified from the conditioned media were completely in the two-chain form, they were treated with plasmin; hexa-His (C); made in house; host or cells: HEK293 6E suspension cells
The assay can be described thus: Ki for inhibition of muPA-K143A, chromogenic substrate. Conditions: means ± S.D.; read-out: K i for inhibition of muPA-K143A. The format is biochemical, murine.
Text: as §1, §2, §3

The target of assay [11] is T11, muPA (Mus musculus, UniProt P06869).
T11 construct: To ensure that the uPAs purified from the conditioned media were completely in the two-chain form, they were treated with plasmin; hexa-His (C); made in house; host or cells: HEK293 6E suspension cells
The assay can be described thus: Surface plasmon resonance analysis of peptide binding to muPA. Further details: species or system murine. Conditions: SPR, 25°C, pH 7.4. As to the method: as §4, §5
(In general: SPR reads the build-up and loss of mass on a sensor chip optically.)

Assay [12] addresses huPA-H99Y Q192A (Homo sapiens, UniProt P00749, H272Y/Q373A). The assay can be described thus: Ki for inhibition of huPA-H99Y-Q192A, chromogenic substrate. The assay is classed as biochemical. Further details: To ensure that the uPAs purified from the conditioned media were completely in the two-chain form, they were treated with plasmin; hexa-His (C); made in house; host or cells: HEK293 6E suspension cells.
Text: as §1, §2, §3

Assay [13] has as its target T8, huPA-H99Y. Conditions: 37°C; means ± S.D.; starred values reproduced from previous publications; ref Andersen et al., 2008; Hosseini et al., 2011; read-out: K i for inhibition of huPA-H99Y; cited from earlier work.
Assay [14] addresses T12, huPA-H99Y (Homo sapiens, UniProt P00749, C299A/H272Y/N322Q).
T12 construct: recombinant uPA catalytic domain (residues 159–411), harbouring a H99Y mutation; made in house; host or cells: Pichia pastoris X-33 (secreted)
The assay can be described thus: Isothermal titration calorimetry for binding to huPA-H99Y catalytic domain. The settings on record: ITC, 25°C, pH 7.4. The method, then:
For these experiments, we used the catalytic domain of huPA-H99Y expressed in and purified from Pichia pastoris strain X-33 (see above). The protein was dissolved in and dialysed against a buffer of 20 mM sodium phosphate, pH 7.4, 140 mM NaCl. The protein concentration was determined by absorbance at 280 nm, using an extinction coefficient of 43810 M^−1cm^−1. The peptides were dissolved in the above-mentioned buffer. All isothermal titration calorimetry experiments were performed with a MicroCal^TM ITC200 instrument equilibrated to a temperature of 25°C (298oK). The concentration of uPA-H99Y catalytic domain used in the 200 µl sample cell was 5–50 µM, depending on the affinity of the ligand. Titrations were performed by injecting 2 µl of the ligand until the total syringe volume of 40 µl was spent. Titration of ligand into buffer was performed to obtain buffer correction. The equilibrium association constant KA and the reaction enthalpy ΔH were calculated by fitting the integrated titration peaks using a one-binding-site model in the ITC ORIGIN7 programme package. The following formulas for Gibbs free energy ΔG were used to analyse the measured energies
[drawing 4] (4) where R is the gas constant and T the absolute temperature. ΔS, the entropic change during the reaction, was calculated using equations 3 and 4 and the measured K A and ΔH values.

Bridge positions count the residues as written; N and C are the ends. Peptide text beside a SMILES is read from it.

T11 sequence (P06869 180-433 limits assumed): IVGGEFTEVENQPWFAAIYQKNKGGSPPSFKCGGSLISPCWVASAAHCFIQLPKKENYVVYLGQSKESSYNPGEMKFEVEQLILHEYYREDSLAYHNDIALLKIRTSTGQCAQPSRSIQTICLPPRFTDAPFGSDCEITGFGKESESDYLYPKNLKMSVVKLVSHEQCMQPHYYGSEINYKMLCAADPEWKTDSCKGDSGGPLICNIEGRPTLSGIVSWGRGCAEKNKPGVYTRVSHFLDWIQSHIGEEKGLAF
T11 sequence (P06869 21-178 partner limits assumed): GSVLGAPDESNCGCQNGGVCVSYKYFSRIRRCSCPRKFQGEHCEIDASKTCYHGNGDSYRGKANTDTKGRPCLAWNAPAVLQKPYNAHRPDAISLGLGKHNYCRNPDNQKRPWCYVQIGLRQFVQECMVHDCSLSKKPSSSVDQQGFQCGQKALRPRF
T4 sequence (P06869 180-433 K210A): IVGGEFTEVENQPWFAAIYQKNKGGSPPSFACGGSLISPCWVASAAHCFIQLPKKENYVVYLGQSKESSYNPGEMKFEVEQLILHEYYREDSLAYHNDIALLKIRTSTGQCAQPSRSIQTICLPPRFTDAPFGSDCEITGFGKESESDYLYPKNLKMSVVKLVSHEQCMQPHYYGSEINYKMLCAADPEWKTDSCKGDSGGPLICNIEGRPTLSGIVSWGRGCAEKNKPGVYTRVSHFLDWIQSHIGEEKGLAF
T4 sequence (P06869 21-178 partner limits assumed): as the sequence (P06869 21-178 partner limits assumed) above
T10 sequence (P06869 180-433 K322A): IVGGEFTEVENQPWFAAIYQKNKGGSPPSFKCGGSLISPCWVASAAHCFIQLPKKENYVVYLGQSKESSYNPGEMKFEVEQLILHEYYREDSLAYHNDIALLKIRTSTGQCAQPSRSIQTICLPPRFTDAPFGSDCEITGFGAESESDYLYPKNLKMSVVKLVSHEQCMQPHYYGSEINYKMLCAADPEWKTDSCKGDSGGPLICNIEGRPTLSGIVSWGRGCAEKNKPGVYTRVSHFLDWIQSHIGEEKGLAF
T10 sequence (P06869 21-178 partner limits assumed): as the sequence (P06869 21-178 partner limits assumed) above
T1 sequence (P06869 180-433 Y274A): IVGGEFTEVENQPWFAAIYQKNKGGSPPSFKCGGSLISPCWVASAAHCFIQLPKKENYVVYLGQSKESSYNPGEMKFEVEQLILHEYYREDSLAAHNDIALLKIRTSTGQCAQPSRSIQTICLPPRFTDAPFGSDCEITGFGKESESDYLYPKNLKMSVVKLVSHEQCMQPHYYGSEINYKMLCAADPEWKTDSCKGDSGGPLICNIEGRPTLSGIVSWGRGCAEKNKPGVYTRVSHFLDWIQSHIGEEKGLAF
T1 sequence (P06869 21-178 partner limits assumed): as the sequence (P06869 21-178 partner limits assumed) above
T3 sequence (P06869 180-433 S373A): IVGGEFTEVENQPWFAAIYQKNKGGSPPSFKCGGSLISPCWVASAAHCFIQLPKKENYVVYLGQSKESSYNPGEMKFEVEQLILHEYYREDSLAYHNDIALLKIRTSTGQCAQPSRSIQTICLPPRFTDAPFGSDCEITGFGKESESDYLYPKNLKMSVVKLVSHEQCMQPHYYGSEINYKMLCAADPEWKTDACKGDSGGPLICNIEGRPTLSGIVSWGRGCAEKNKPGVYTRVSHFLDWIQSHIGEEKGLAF
T3 sequence (P06869 21-178 partner limits assumed): as the sequence (P06869 21-178 partner limits assumed) above
T2 sequence (P06869 180-433 V396T): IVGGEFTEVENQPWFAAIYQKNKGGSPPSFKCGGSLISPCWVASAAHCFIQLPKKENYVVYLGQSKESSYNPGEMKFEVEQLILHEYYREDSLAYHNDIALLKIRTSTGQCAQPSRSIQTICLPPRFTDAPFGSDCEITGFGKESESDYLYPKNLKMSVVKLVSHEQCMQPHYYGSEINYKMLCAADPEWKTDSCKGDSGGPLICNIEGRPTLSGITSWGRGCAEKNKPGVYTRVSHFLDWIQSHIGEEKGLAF
T2 sequence (P06869 21-178 partner limits assumed): as the sequence (P06869 21-178 partner limits assumed) above
T9 sequence (P06869 180-433 limits assumed): as the sequence (P06869 180-433 limits assumed) above
T9 sequence (P06869 21-178 partner limits assumed): as the sequence (P06869 21-178 partner limits assumed) above

One may read the Kd as the concentration at which binding is half-saturated. One may read the koff as a measure of how fast the partners let go of each other. The kon is the second-order rate constant of association. Consider `CC(=O)N[C@H]1CSSC[C@@H](C(N)=O)NC(=O)[C@H](CC(=O)O)NC(=O)[C@H](CC(C)C)NC(=O)[C@H](Cc2ccc(O)cc2)NC(=O)[C@H](CCCNC(=N)N)NC(=O)[C@H](CO)NC(=O)[C@H](Cc2ccc(O)cc2)NC(=O)[C@H](C)NC(=O)[C@@H]2CCCN2C1=O` [Mupain-1, CPAYSRYLDC] (Ac-CPAYSRYLDC-NH2; disulfide 1-10), for which the Ki in assay [1] was 26 ± 5.8 µM; in assay [2], 0.246 ± 0.044 µM; in assay [3], 1.6 ± 0.53 µM; in assay [4], 4.29 ± 0.15 µM; in assay [5], 32.4 ± 5.3 µM; in assay [6], 39.5 ± 2.9 µM. In addition, the Ki is 56.6 ± 8 µM in assay [7]; roughly 0.5 µM in assay [9]; 4.88 ± 0.35 µM in assay [10]; 33.2 ± 4.2 µM in [12]; 15.3 ± 2 µM in assay [13]. In addition, the Kd is 14.1 ± 2.4 µM in assay [8] (K D, huPA-H99Y, 25°C, pH 7.4, calculated as k off/k on); 15.8 µM in [8] (KD of fitted curve, representative sensorgram, huPA-H99Y immobilized on CM5 chip, single example (S3 Fig)); 5.04 ± 1.61 µM in assay [14]. Also, the “k off, huPA-H99Y” value in assay [8] (25°C, pH 7.4) was 80.2±7.6 (4) s^-1, ×10^2. Further, the “k on, huPA-H99Y” value in [8] (25°C, pH 7.4) is 0.569±0.103 (4) M^-1s^-1, ×10^-5. The koff in assay [8] (huPA-H99Y immobilized on CM5 chip, single example (S3 Fig), read-out: koff of fitted curve, representative sensorgram) stood at 0.803 s⁻¹. The kon in [8] (huPA-H99Y immobilized on CM5 chip, single example (S3 Fig), read-out: kon of fitted curve, representative sensorgram) is 50900 M⁻¹ s⁻¹. The “k off, muPA” value in [11] is reported as 3.64±1.03 (6) s^−1, ×10^2. For the same molecule, the “k on, muPA” value in assay [11] is on record as 0.914±0.250 (6) M^−1s^−1, ×10^−5.

Source of the values: article PMC4278837, “A Cyclic Peptidic Serine Protease Inhibitor: Increasing Affinity by Increasing Peptide Flexibility” (PLoS ONE, 2014).
